Values joined by “and” are separate entries in the source; they are usually repeats but may differ in a detail not shown here. Equal entries are not always repeated. Where two headings read alike, the source gives them in different places.
Assays:
GlyT-1 [1] = molecular target: T1, GlyT-1 (Rattus norvegicus, UniProt P28572); assay: Drug inhibition of [3H]CHIBA-3007 binding to rat brain membranes; conditions: [3H]CHIBA-3007 (1 nM)
T1 construct: the tissues of whole brains or each specific brain region were homogenized; from tissue; host or cells: rat brain (whole brain or dissected regions; male Crl:CD (SD) rats)
T1 sequence (P28572 1-638): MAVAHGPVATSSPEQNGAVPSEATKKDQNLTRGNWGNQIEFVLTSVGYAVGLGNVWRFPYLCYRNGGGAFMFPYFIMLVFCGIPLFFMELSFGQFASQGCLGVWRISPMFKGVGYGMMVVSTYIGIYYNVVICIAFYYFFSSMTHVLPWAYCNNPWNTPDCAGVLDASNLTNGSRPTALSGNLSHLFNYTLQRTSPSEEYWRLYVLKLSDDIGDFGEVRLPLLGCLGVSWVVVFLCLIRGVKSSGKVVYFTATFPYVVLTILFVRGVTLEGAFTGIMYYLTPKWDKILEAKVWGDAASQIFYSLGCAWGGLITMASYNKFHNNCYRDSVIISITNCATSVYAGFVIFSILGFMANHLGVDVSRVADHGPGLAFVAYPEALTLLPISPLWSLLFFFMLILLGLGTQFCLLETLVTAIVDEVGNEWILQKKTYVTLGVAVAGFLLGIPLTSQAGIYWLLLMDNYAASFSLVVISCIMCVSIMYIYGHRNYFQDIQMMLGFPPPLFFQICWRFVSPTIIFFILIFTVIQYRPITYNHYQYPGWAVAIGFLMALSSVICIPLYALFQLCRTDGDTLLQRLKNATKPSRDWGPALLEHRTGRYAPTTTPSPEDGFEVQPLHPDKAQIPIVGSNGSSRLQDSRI
Description: The supernatant was discarded and the pellet was re-suspended, homogenized and centrifuged as above. The membrane pellet was washed and re-suspended in ice-cold HEPES buffer and was then centrifuged three times. The final pellet was re-suspended in 15 volumes of the buffer (120 mM NaCl, 2 mM KCl, 1 mM CaCl2, 1 mM MgCl2 10 mM HEPES, pH 7.5 at room temperature).
The binding reaction was terminated by rapid vacuum filtration onto Whatman GF/B glass filters pretreated with 0.5% polyethyleneimine (Sigma-Aldrich Co.) using a 24-channel cell harvester (Brandell, Gaithersburg, MD). The filters were washed with 5 mL of ice-cold assay buffer 3 times, and placed in vials with 4 mL scintillation cocktail. The radioactivity trapped by the filters was determined using a liquid scintillation counter (Beckman LS-6500; Beckman Coulter K.K., Tokyo, Japan).
(§1) The data are shown as the mean ± standard error of the mean (S.E.M.). The dissociation constant (Kd) and maximal binding (Bmax) values from saturation binding and the IC50 values from binding displacement by each drug were determined using the program GraphPad Prism (GraphPad Software, San Diego, CA). […] Correlation was analyzed by Pearson's Correlation Coefficient (PASW Statistics 19, Tokyo, Japan). Significance was set at p<0.05.

GlyT-1 [2] = molecular target: T1, GlyT-1; assay: Inhibition of [14C]glycine uptake in rat brain membranes; format: biochemical
Description: The homogenate was centrifuged at 1,000 g for 10 min to remove nuclei and debris, and then the supernatant was centrifuged again at 20,000 g for 20 min (synaptosomal P2 fraction). The pellet was washed and re-suspended in ice-cold 0.32 M sucrose, buffered with 10 mM HEPES (pH 7.4) and centrifuged again at 20,000 g for 20 min (washed P2 fraction). The pellet was re-suspended in 10 volumes of assay buffer with the following composition: 10 mM HEPES buffer (pH 7.4) containing 140 mM NaCl, 5.5 mM KCl, 1.8 mM CaCl2, 0.8 mM MgSO4, 5 mM glucose and 5 mM L-alanine (HB). The protein concentrations were measured by using a DC protein assay kit (Bio-Rad Laboratories Inc., Tokyo, Japan).
Non-specific uptake was estimated in the presence of 30 µM SSR504734. […] The filters were washed by buffer, and the radioactivity trapped by the filters was determined using a liquid scintillation counter as described above.
as §1

GlyT-1 [3] = conditions: read-out: IC50 for [3H]glycine uptake; cited from earlier work
GlyT-1 [4] = conditions: cited from earlier work
GlyT-1 [5] = molecular target: T1, GlyT-1; conditions: cited from earlier work
GlyT-1 [6] = molecular target: T1, GlyT-1; assay: Equilibrium saturation binding of [3H]CHIBA-3007 to rat brain membranes
Description: For saturation-binding isotherms, 6 grade-diluted concentrations of [^3H]CHIBA-3007 (0.3125–10 nM) were used. Specific binding of [^3H]CHIBA-3007 to rat brain membranes was saturable and rapid, and represented >90% of total binding over the concentration range of [^3H]CHIBA-3007 (Figure 2).
Figure 2 Specific binding of [^3H]CHIBA-3007 to rat brain membranes. Rat brain membranes were incubated with various concentrations of [^3H]CHIBA-3007 (0.3125–10 nM) for 120 min at room temperature. Nonspecific binding was estimated in the presence of 10 µM SSR504734. The results are from a typical experiment and values are the average of duplicate determinations. […] TB: total binding, NSB: nonspecific binding, SB: specific binding. The results are means ± S.E.M. of three independent experiments performed in duplicate. […] The data are the mean of three independent experiments performed in duplicate.
(§2) For the [^3H]CHIBA-3007-binding assay, the tissues of whole brains or each specific brain region were homogenized in 15 volumes (w/v) of 10 mM 4-(2-hydroxyethyl)-1- piperazineethanesulfonic acid (HEPES) at pH 7.4 for 30 s on ice. The homogenate was centrifuged at 40,000 g for 15 min at 4°C. The supernatant was discarded and the pellet was re-suspended, homogenized and centrifuged as above. The membrane pellet was washed and re-suspended in ice-cold HEPES buffer and was then centrifuged three times. The final pellet was re-suspended in 15 volumes of the buffer (120 mM NaCl, 2 mM KCl, 1 mM CaCl2, 1 mM MgCl2 10 mM HEPES, pH 7.5 at room temperature).
Assays of the binding of [^3H]CHIBA-3007 to rat brain membranes were performed. Aliquots of the rat brain membrane suspension (200 µL) were added in duplicate to a reaction mixture containing [^3H]CHIBA-3007 and the indicated concentrations of test drug in a final volume of 0.5 mL. Non-specific binding was estimated in the presence of 10 µM SSR504734, a potent and selective GlyT-1 inhibitor [34]. [3H]CHIBA-3007 binding was allowed to occur for 120 min at room temperature for the equilibrium saturation and inhibition studies. The binding reaction was terminated by rapid vacuum filtration onto Whatman GF/B glass filters pretreated with 0.5% polyethyleneimine (Sigma-Aldrich Co.) using a 24-channel cell harvester (Brandell, Gaithersburg, MD). The filters were washed with 5 mL of ice-cold assay buffer 3 times, and placed in vials with 4 mL scintillation cocktail. The radioactivity trapped by the filters was determined using a liquid scintillation counter (Beckman LS-6500; Beckman Coulter K.K., Tokyo, Japan).
as §1

GlyT-1 [7] = molecular target: T1, GlyT-1; assay: Regional distribution of [3H]CHIBA-3007 binding in rat brain; conditions: [3H]CHIBA-3007 1 nM, seven rat brain regions
Description: After sacrificing the rats by decapitation, the brains were rapidly removed from the skulls. Whole brains or seven specific cerebral regions - the cerebral cortex, striatum, hippocampus, thalamus, midbrain, cerebellum and pons - dissected on ice by the method of Glowinski and Iversen were stored at −80°C until use for the assay.
as §2
Assays of the binding of [^3H]CHIBA-3007 to rat brain membranes were performed. […] The radioactivity trapped by the filters was determined using a liquid scintillation counter (Beckman LS-6500; Beckman Coulter K.K., Tokyo, Japan).

[8] = 120 min room temperature, mean ± S.E.M., n=3

Which Ki (GlyT-1 [1]; [8]) does the source give for `CN(CC[C@@H](Oc1ccc(C(F)(F)F)cc1)c1ccccc1)CC(=O)O` (racemic) [Org24598, (R,S)-(±)N-methyl-N-[(4-trifluoromethyl)phenoxy]-3-phenylpropylglycine] here?
The Ki was 16.9 ± 3.1 nM.

What about the IC50 (GlyT-1 [2]) of the same compound?
Its IC50 is 653 ± 154 nM.

With `N[C@@H](COC(c1cccc(F)c1)c1ccccc1OCc1ccccc1)C(=O)O` (stereo partly drawn) [ALX1393, O-[(2-benzyloxyphenyl-3-flurophenyl)methyl]-L-serine] as the compound, how does the Ki (GlyT-1 [1]; [8]) read?
Its Ki is 852 ± 56.4 nM.

For `O=C(N[C@@H](c1cccc(-c2cn[nH]c2)c1)[C@H]1CCCCN1)c1nccc(C(F)(F)F)c1Cl` [CHIBA-3008, N-((S)-(3-(1H-pyrazol-4-yl)phenyl)((R)-piperidin-2-yl)methyl)-3-chloro-4-(trifluoromethyl)pyridine-2-carboxamide], which Ki (GlyT-1 [1]; [8]) is on record?
Its Ki is 2.2 ± 0.6 nM.

And the IC50 (GlyT-1 [3])?
The IC50 was 0.2 nM.

With `O=C(N[C@@H](c1ccsc1)[C@H]1CCCCN1)c1nccc(C(F)(F)F)c1Cl` [Desmethyl-CHIBA-3007, 3-chloro-N-((S)-((R)-piperidin-2-yl)(thiophen-3-yl)methyl)-4-(trifluoromethyl)picolinamide] as the compound, how does the Ki (GlyT-1 [1]; [8]) read?
The Ki was 35.9 ± 1.3 nM.

What about the IC50 (GlyT-1 [2]) of the same compound?
Its IC50 is 187 ± 40 nM.

For `Cc1cccc(C)c1C(=O)N[C@@H](c1ccccc1)C1(N(C)C)CCCC1` [GSK931145], which “pIC50 for inhibiting [3H]glycine uptake” value (GlyT-1 [4]) is on record?
The value was 7.58.

With `CN(CCOc1ccc(-c2ccc3c(c2)OCO3)cc1C(C)(C)C)CC(=O)O` [LY2365109] as the compound, how does the Ki (GlyT-1 [1]; [8]) read?
Its Ki is 16.2 ± 4.9 nM.

What about the IC50 (GlyT-1 [2]) of the same compound?
Its IC50 is 1350 nM.

What does the source list for `CN(CCC(Oc1ccc(-c2ccccc2)cc1)c1ccc(F)cc1)CC(=O)O` (centres unmarked) [NFPS/ALX5407, N-[3-(4-fluorophenyl)-3-(4-phenyl-phenoxy)propyl]-sarcosine]?
Ki (GlyT-1 [1]; [8]): 4.1 ± 0.9 nM; IC50 (GlyT-1 [2]): 83.7 ± 30.3 nM; Type of interaction with binding of [3H]SB-733993 and [3H]GSK931145 (GlyT-1 [5]): uncompetitive interactions

Which “Type of interaction with binding of [3H]SB-733993 and [3H]GSK931145” value (GlyT-1 [5]) does the source give for `COc1ccc2c(c1)CC[C@H](CN(C)CC(=O)O)[C@@H]2c1ccccc1` [Org25935] here?
The value was “uncompetitive interactions”.

With `O=C(N[C@@H](c1ccccc1)[C@@H]1CCCCN1)c1cccc(C(F)(F)F)c1Cl` [SSR504734] as the compound, how does the Ki (GlyT-1 [1]; [8]) read?
The Ki was 24.6 ± 0.8 nM.

And the IC50 (GlyT-1 [2])?
Its IC50 is 84.5 ± 29.8 nM.

And the “pIC50 for inhibiting [3H]glycine uptake” value (GlyT-1 [4])?
Its value is 6.52.

Which results are given for `CNCC(=O)O` [Sarcosine, sarcosine]?
Ki (GlyT-1 [1]): 103000 nM; Ki (GlyT-1 [1]; [8]): 103000 nM; IC50 (GlyT-1 [2]): 414000 nM

For `CN1CCCC[C@@H]1[C@@H](NC(=O)c1nccc(C(F)(F)F)c1Cl)c1ccsc1` [[^3H]CHIBA-3007, [^3H]3-chloro-N-((S)-((R)-1-methylpiperidin-2-yl)(thiophen-3-yl)methyl)-4-(trifluoromethyl)picolinamide], which Kd (GlyT-1 [6]; room temperature, 0.3125–10 nM radioligand, n=3, read-out: Kd (apparent equilibrium dissociation constant)) is on record?
The Kd was 1.61 ± 0.16 nM.

For `[3H]C([3H])([3H])N1CCCC[C@@H]1[C@@H](NC(=O)c1nccc(C(F)(F)F)c1Cl)c1ccsc1` [[^3H]CHIBA-3007, [^3H]3-chloro-N-((S)-((R)-1-methylpiperidin-2-yl)(thiophen-3-yl)methyl)-4-(trifluoromethyl)picolinamide], which Nonspecific binding (GlyT-1 [6]) is on record?
The Nonspecific binding was less than 10%.

What about the “Time to reach binding equilibrium” value (GlyT-1 [6]; kinetic study, data not shown) of the same compound?
The value was “less than 5 min”.

And the “Specific binding as share of total binding” value (GlyT-1 [6]; over the concentration range 0.3125–10 nM)?
Its value is greater than 90%.

What about the “Bmax (maximal number of binding sites)” value (GlyT-1 [6]; room temperature, n=3) of the same compound?
The value was 692.8 fmol/mg protein and 692.8±22.8 fmol/mg protein.

And the “Order of specific binding in brain regions” value (GlyT-1 [7])?
Its value is “midbrain > pons > thalamus > cerebellum > striatum > hippocampus > cerebral cortex”.

Which Kd (GlyT-1 [5]) does the source give for `Cc1cccc(C)c1C(=O)N[C@@H](c1ccccc1)C1(N(C)C)CCCC1` [[^3H]GSK931145] here?
The Kd was 1 to 2 nM.

Which results are given for `[3H]C([3H])([3H])N(C)C1([C@@H](NC(=O)c2c(C)cccc2C)c2ccccc2)CCCC1` [[^3H]GSK931145]?
Specific binding as share of total binding (GlyT-1 [5]; at concentrations around Kd): > 90%; Bmax (GlyT-1 [5]; rat brain): around 3000 fmol/mg protein

— article PMC3121759 (PLoS ONE, 2011)
